# pIC50: −log10 of the molar value.
# System: Plasmodium falciparum
# Assay: Antimalarial activity against Plasmodium falciparum Nigerian assessed as [3H]hypoxanthine uptake after 48 hrs by liquid scintillation counting
# Type: functional, organism-based
row,pIC50,SMILES
1,7.28,CCCCCCCCCCCCCCCCCC(=O)OC1=C([C@H]2CC[C@H](c3ccc(Cl)cc3)CC2)C(=O)c2ccccc2C1=O
2,8.78,O=C(Cc1ccc(Cl)cc1)OC1=C([C@H]2CC[C@H](c3ccc(Cl)cc3)CC2)C(=O)c2ccccc2C1=O
3,7.49,CCCCCCCCCCCCCCCCCCOC1=C([C@H]2CC[C@H](c3ccc(Cl)cc3)CC2)C(=O)c2ccccc2C1=O
4,8.72,CCCCCCCCCC(=O)OC1=C([C@H]2CC[C@H](c3ccc(Cl)cc3)CC2)C(=O)c2ccccc2C1=O
5,8.80,O=C(OC1=C([C@H]2CC[C@H](c3ccc(Cl)cc3)CC2)C(=O)c2ccccc2C1=O)c1ccc(F)cc1
6,8.76,O=C(Cc1ccc(F)cc1)OC1=C([C@H]2CC[C@H](c3ccc(Cl)cc3)CC2)C(=O)c2ccccc2C1=O
7,8.84,O=C(/C=C/c1ccccc1)OC1=C([C@H]2CC[C@H](c3ccc(Cl)cc3)CC2)C(=O)c2ccccc2C1=O
8,< 7.00,CCCCCCCCCC(=O)OC1=C([C@H]2CC[C@H](c3ccc(Cl)cc3)CC2)C(=O)C(=O)c2ccccc21
9,8.26,CCOC1=C([C@H]2CC[C@H](c3ccc(Cl)cc3)CC2)C(=O)c2ccccc2C1=O
10,8.12,O=C1C(OCc2ccccc2)=C([C@H]2CC[C@H](c3ccc(Cl)cc3)CC2)C(=O)c2ccccc21
11,7.87,CCCCCCOC1=C([C@H]2CC[C@H](c3ccc(Cl)cc3)CC2)C(=O)c2ccccc2C1=O
12,7.85,CCCCCCCCCOC1=C([C@H]2CC[C@H](c3ccc(Cl)cc3)CC2)C(=O)c2ccccc2C1=O
13,7.96,CCCCCCCCCCOC1=C([C@H]2CC[C@H](c3ccc(Cl)cc3)CC2)C(=O)c2ccccc2C1=O
14,8.82,CCCCCCCC(=O)OC1=C([C@H]2CC[C@H](c3ccc(Cl)cc3)CC2)C(=O)c2ccccc2C1=O
15,8.51,CCCCCCCCC(=O)OC1=C([C@H]2CC[C@H](c3ccc(Cl)cc3)CC2)C(=O)c2ccccc2C1=O
16,8.82,CC(=O)OC1=C([C@H]2CC[C@H](c3ccc(Cl)cc3)CC2)C(=O)c2ccccc2C1=O
17,8.90,O=C(OC1=C([C@H]2CC[C@H](c3ccc(Cl)cc3)CC2)C(=O)c2ccccc2C1=O)c1ccccc1
18,8.90,CCCCCC(=O)OC1=C([C@H]2CC[C@H](c3ccc(Cl)cc3)CC2)C(=O)c2ccccc2C1=O
19,9.12,O=C1C(O)=C([C@H]2CC[C@H](c3ccc(Cl)cc3)CC2)C(=O)c2ccccc21 [ATOVAQUONE]

row,SMILES,pIC50
1,C=C[C@H]1CN2CC[C@H]1C[C@H]2[C@H](O)c1ccnc2ccc(OC)cc12 [QUININE],6.74

# — ChEMBL document CHEMBL1154273, “Synthesis and antimalarial activity of new atovaquone derivatives” (Eur J Med Chem, 2009)
